In patent publication US20100160301A1, “MICROANGIOPATHY TREATMENT AND PREVENTION” (BAYER HEALTHCARE AG, priority 2005, published 2010):

Legend:
[1] = test system: thrombus formation in an arteriovenous shunt; assay: Arteriovenous shunt model (rat), antithrombotic action; assay type: in vivo; conditions: oral dosage, read-out: ED50 [mg/kg] p.o.
Procedure: Fasting male rats (strain: HSD CPB:WU) having a weight of 200-250 g are anesthetized using a Rompun/Ketavet solution (12 mg/kg/50 mg/kg). Thrombus formation is induced in an arteriovenous shunt following the method described by Christopher N. Berry et al., Br. J. Pharmacol. (1994), 113, 1209-1214. For this, the left jugular vein and the right carotid artery are exposed. An extracorporeal shunt is arranged between the two vessels by means of a 10 cm long polyethylene tube (PE 60). This polyethylene tube was linked in the center to a further 3 cm long polyethylene tube (PE 160), which contained a nylon thread which was roughened and linked to a loop for the production of a thrombogenic surface. The extracorporeal circulation is maintained for 15 minutes. The shunt is then removed and the nylon thread with the thrombus is immediately weighed. The unloaded weight of the nylon thread had been determined before the start of the experiment. Before starting the extracorporeal circulation, test substances are administered to conscious animals either intravenously via the caudal vein or orally by means of stomach tube.

SMILES | melting point | ED50 [1]
O=C(NC[C@H]1CN(c2ccc(N3CCCOC3=O)cc2)C(=O)O1)c1ccc(Cl)s1 [Example 255] | 228 to 230 °C | 
O=C(NC[C@H]1CN(c2ccc(N3CCOCC3=O)cc2)C(=O)O1)c1ccc(Cl)s1 [Example 44, 5-Chloro-N-({(5S)-2-oxo-3-[4-(3-oxo-4-morpholinyl)phenyl]-1,3-oxazolidin-5-yl}methyl)-2-thiophenecarboxamide] |  | 3 mg/kg
